Measured values published in patent US12145944B2, “Imidazopyrimidines as EED inhibitors and the use thereof” (THE REGENTS OF THE UNIVERSITY OF MICHIGAN, priority 2019, dated 2024).
Like-named read-outs stand apart in the source and are kept apart here.

Legend:
EED (1-441)-His protein = molecular target: T1, EED (1-441)-His protein (Homo sapiens, UniProt O75530); assay: EED-H3K27Me3 peptide competition binding assay by AlphaScreen; conditions: EED Alpha screen binding assay, read-out: Alpha screen
T1 construct: 20 nM EED (1-441)-His protein
T1 sequence (O75530 whole entry): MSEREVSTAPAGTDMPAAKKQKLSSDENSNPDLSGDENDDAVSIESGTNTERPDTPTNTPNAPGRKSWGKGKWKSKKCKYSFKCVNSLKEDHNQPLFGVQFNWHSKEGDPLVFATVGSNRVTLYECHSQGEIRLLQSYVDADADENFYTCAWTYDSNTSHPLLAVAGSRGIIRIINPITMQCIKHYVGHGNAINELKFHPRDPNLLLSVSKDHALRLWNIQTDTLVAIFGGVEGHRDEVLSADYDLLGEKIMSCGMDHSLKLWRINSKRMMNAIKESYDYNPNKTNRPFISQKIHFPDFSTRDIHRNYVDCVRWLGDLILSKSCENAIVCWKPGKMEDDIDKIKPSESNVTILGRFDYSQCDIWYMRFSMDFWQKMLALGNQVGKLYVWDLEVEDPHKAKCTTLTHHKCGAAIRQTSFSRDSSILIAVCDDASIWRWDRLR
Protocol: “N/A” stands for “not assessed”.
EED-H3K27Me3 peptide competition binding assay by AlphaScreen (α-screen)
2.5 μl of solutions containing 20 nM biotin-H3K27Me3 (19-33) peptide in the buffer (25 mM HEPES, pH 8, 0.02% Tween-20, 0.5% BSA) were added to the wells and then incubated with compound for 30 min. […] Then 10 μl of the detection beads mix was added to the plate and incubated in the dark at RT for 1 h. The final concentration of donor and acceptor beads was 10 μg/ml for each. […] The data were then fit to a dose response equation to get the IC50 values.

[1] = test system: KARPAS422 human B cell lymphoma cell; assay: Cell proliferation, KARPAS422, 7 day treatment (WST-8); type: cell-based
Method in brief: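 KARPAS422 cells seeded at 2 000-3 000 cells/well and exposed to serially diluted compounds for 7 days at 37 °C, 5% CO2. Growth measured by WST-8 (1-4 h, absorbance 450 nm). Readings normalized to DMSO-treated cells; IC50 from nonlinear regression.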

Pfeiffer cell line = assay: Anti-proliferative activity, Pfeiffer cell line, 7 day treatment; type: cell-based
Method in brief: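 Cells seeded at 2 000-3 000 per well were treated with serially diluted compounds for 7 days at 37° C, 5% CO2. Growth was measured by WST-8 assay read at 450 nm after 1-4 h reagent incubation. Readings were normalized to DMSO-treated cells and IC50 values derived by nonlinear regression.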

[2] = Homo sapiens, KARPAS-422, 168 h, anti-proliferative IC50 class, Karpas 422 cell line, 7 day treatment, read-out: Karpas Cell line
[3] = Homo sapiens, 168 h, anti-proliferative IC50 class, Pfeiffer cell line, 7 day treatment, read-out: Pfeiffer Cell line

Row | SMILES | IC50 (EED (1-441)-His protein; IC50 class) [nM] | IC50 [1, 2] [nM] | IC50 (Pfeiffer cell line; [3]) [nM] | further results
1 | [2H]C([2H])(Nc1ncc2c3c(ncn13)C(=O)N(CC(F)(F)F)Cc1nc(C)ccc1-2)c1c(F)ccc2c1CCO2 [E 20, 12-(((5-fluoro-2,3-dihydrobenzofuran-4-yl)methyl-d2)amino)-7-methyl-4-(2,2,2-trifluoroethyl)-4,5-dihydro-3H-2,4,6,11,12a-pentaazabenzo[4,5]cycloocta[1,2,3-cd]inden-3-one] | < 10 | < 10 | < 10 | 
2 | [2H]C([2H])([2H])c1ccc2c(n1)CN(CC(F)(F)F)C(=O)c1ncn3c(NC([2H])([2H])c4c(F)ccc5c4CCO5)ncc-2c13 [E 21, 12-(((5-fluoro-2,3-dihydrobenzofuran-4-yl)methyl-d2)amino)-7-(methyl-d3)-4-(2,2,2-trifluoroethyl)-4,5-dihydro-3H-2,4,6,11,12a-pentaazabenzo[4,5]cycloocta[1,2,3-cd]inden-3-one] | < 10 | < 10 | < 10 | 
3 | [2H]C1Oc2ccc(F)c(C([2H])([2H])Nc3ncc4c5c(ncn35)C(=O)N(CC(F)(F)F)Cc3nc(C)ccc3-4)c2C1[2H] (stereo not drawn) [E 22, 12-(((5-fluoro-2,3-dihydrobenzofuran-4-yl-2,3-d2)methyl-d2)amino)-7-methyl-4-(2,2,2-trifluoroethyl)-4,5-dihydro-3H-2,4,6,11,12a-pentaazabenzo[4,5]cycloocta[1,2,3-cd]inden-3-one] | < 10 | < 10 | < 10 | 
4 | [2H]C1Oc2ccc(F)c(C([2H])([2H])Nc3ncc4c5c(ncn35)C(=O)N(CC(F)(F)F)Cc3nc(C([2H])([2H])[2H])ccc3-4)c2C1[2H] (stereo not drawn) [E 23, 12-(((5-fluoro-2,3-dihydrobenzofuran-4-yl-2,3-d2)methyl-d2)amino)-7-(methyl-d3)-4-(2,2,2-trifluoroethyl)-4,5-dihydro-3H-2,4,6,11,12a-pentaazabenzo[4,5]cycloocta[1,2,3-cd]inden-3-one] | < 10 | < 10 | < 10 | 
5 | Cc1ccc(-c2cc(C#N)c(NCc3c(F)ccc4c3CCO4)n3cnc(S(C)(=O)=O)c23)c(C)n1 [E 25, 8-(2,6-dimethylpyridin-3-yl)-5-(((5-fluoro-2,3-dihydrobenzofuran-4-yl)methyl)amino)-1-(methylsulfonyl)imidazo[1,5-a]pyridine-6-carbonitrile] | < 10 | 10 to 100 | 10 to 100 | 
6 | CS(=O)(=O)c1ncn2c(NCc3c(F)ccc4c3CCO4)c(C#N)cc(-c3ccc(C4CC4)nc3)c12 [E 26, 8-(6-cyclopropylpyridin-3-yl)-5-(((5-fluoro-2,3-dihydrobenzofuran-4-yl)methyl)amino)-1-(methylsulfonyl)imidazo[1,5-a]pyridine-6-carbonitrile] | 10 to 100 | 10 to 100 | < 10 | 
7 | Cc1ncccc1-c1cc(C#N)c(NCc2c(F)ccc3c2CCO3)n2cnc(S(C)(=O)=O)c12 [E 27, 5-(((5-fluoro-2,3-dihydrobenzofuran-4-yl)methyl)amino)-8-(2-methylpyridin-3-yl)-1-(methylsulfonyl)imidazo[1,5-a]pyridine-6-carbonitrile] | 10 to 100 | 10 to 100 | < 10 | 
8 | CC(C)N1Cc2cc(C(F)(F)F)ncc2-c2cnc(NCc3c(F)ccc4c3CCO4)n3cnc(c23)C1=O [E 40, 12-(((5-fluoro-2,3-dihydrobenzofuran-4-yl)methyl)amino)-4-isopropyl-7-(trifluoromethyl)-4,5-dihydro-3H-2,4,8,11,12a-pentaazabenzo[4,5]cycloocta[1,2,3-cd]inden-3-one] | < 10 | < 10 | < 10 | 
9 | O=C1c2ncn3c(NCc4c(F)ccc5c4CCO5)ncc(c23)-c2ccc(C3COC3)nc2CN1CC(F)(F)F [E 51, 12-(((5-fluoro-2,3-dihydrobenzofuran-4-yl)methyl)amino)-7-(oxetan-3-yl)-4-(2,2,2-trifluoroethyl)-4,5-dihydro-3H-2,4,6,11,12a-pentaazabenzo[4,5]cycloocta[1,2,3-cd]inden-3-one] | < 10 | < 10 | < 10 | 
10 | O=C1Nc2ncccc2-c2cnc(NCc3c(F)ccc4c3CCO4)n3cnc1c23 [compound 4, 11-(((5-fluoro-2,3-dihydrobenzofuran-4-yl)methyl)amino)-2,4,5,10,11a-pentaazadibenzo[cd,f]azulen-3(4H)-one] |  |  |  | IC50 (EED (1-441)-His protein): > 10 nM; IC50 ([1]; Homo sapiens, KARPAS-422, 168 h, anti-proliferative IC50, Karpas 422 cell line, 7 day treatment, read-out: Karpas Cell line): > 100 nM; IC50 (Pfeiffer cell line; Homo sapiens, 168 h, anti-proliferative IC50, Pfeiffer cell line, 7 day treatment, read-out: Pfeiffer Cell line): > 100 nM
11 | O=C1c2ncn3c(NCc4c(F)ccc5c4CCO5)ncc(c23)-c2sccc2CN1C1CC1 [compound 87, 4-cyclopropyl-11-(((5-fluoro-2,3-dihydrobenzofuran-4-yl)methyl)amino)-4,5-dihydro-3H-8-thia-2,4,10,11a-tetraazacyclopenta[4,5]cycloocta[1,2,3-cd]inden-3-one] |  |  |  | IC50 (EED (1-441)-His protein): 11.2 nM; IC50 ([1]; anti-proliferative IC50, Karpas 422 cell line, 7 day treatment, read-out: Karpas Cell line): 8.67 nM; IC50 (Pfeiffer cell line; anti-proliferative IC50, Pfeiffer cell line, 7 day treatment, read-out: Pfeiffer Cell line): 0.018 nM
12 | CS(=O)(=O)c1ncn2c(NCc3c(F)ccc4c3CCO4)ncc(-c3ccc(C(F)(F)F)nc3)c12 [compound 102, N-((5-fluoro-2,3-dihydrobenzofuran-4-yl)methyl)-1-(methylsulfonyl)-8-(6-(trifluoromethyl)pyridin-3-yl)imidazo[1,5-c]pyrimidin-5-amine] |  |  |  | IC50 (EED (1-441)-His protein): 0.62 nM; IC50 ([1]; Homo sapiens, KARPAS-422, 168 h, read-out: Karpas Cell line (nM)): 0.94 nM; IC50 (Pfeiffer cell line; Homo sapiens, Pfeiffer, 168 h, read-out: Pfeiffer Cell line (nM)): 0.59 nM
